pIC50: −log10 of the molar value.
Each molecule was assayed against T1, Dual specificity protein phosphatase 1 (Homo sapiens, UniProt P28562) (assay: concentration-response of DUSP1 blockers – biochemical, in vitro, confirmation, dose response (AID 551)). Conditions: pH 7; 22 °C.
T1 sequence (P28562 whole entry): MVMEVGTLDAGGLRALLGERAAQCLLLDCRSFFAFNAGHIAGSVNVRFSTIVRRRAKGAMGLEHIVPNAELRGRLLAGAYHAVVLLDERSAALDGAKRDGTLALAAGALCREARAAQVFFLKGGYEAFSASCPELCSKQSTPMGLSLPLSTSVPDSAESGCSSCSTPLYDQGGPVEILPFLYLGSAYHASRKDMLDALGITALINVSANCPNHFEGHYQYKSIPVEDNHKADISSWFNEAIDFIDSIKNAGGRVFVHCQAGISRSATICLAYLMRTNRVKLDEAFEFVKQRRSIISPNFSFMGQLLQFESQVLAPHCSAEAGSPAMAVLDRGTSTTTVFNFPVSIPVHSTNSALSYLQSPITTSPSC

Point of comparison: `O=C1Nc2ccccc2SC(c2ccccc2)C1O` (stereo unspecified) [3-hydroxy-2-phenyl-2,3-dihydro-1,5-benzothiazepin-4(5H)-one], pIC50 4.70. Against it:
- Cc1ccc(S(=O)(=O)NCC(C)NS(=O)(=O)c2ccc(C)cc2)cc1 (stereo unspecified) [4-methyl-N-[2-(tosylamino)propyl]benzenesulfonamide] — lower, < 4.30
- N#CC(C(=O)CSc1nnc(Cc2cccs2)n1C1CCCCC1)c1nc2ccccc2[nH]1 (stereo unspecified) [MLS000098387] — lower, < 4.30
- CC1CCN(S(=O)(=O)c2ccc3c(c2)c(=O)c(C(=O)NC2CCCC2)cn3C)CC1 [MLS000095109] — lower, < 4.30
- Cc1ccc(NC(=O)CSc2nnc(-c3ccc(S(=O)(=O)N4CCCC4)cc3)o2)cc1C [MLS000071775] — lower, < 4.30
- CC1CCCCC1NC(=O)CCn1c(=O)oc2ccccc21 (stereo unspecified) [3-(2-keto-1,3-benzoxazol-3-yl)-N-(2-methylcyclohexyl)propionamide] — lower, < 4.30
- Cc1cccc(N2CCN(C(=O)Cc3c(C(=O)O)[nH]c4ccc(Cl)cc34)CC2)c1C [5-chloranyl-3-[2-[4-(2,3-dimethylphenyl)piperazin-1-yl]-2-oxidanylidene-ethyl]-1H-indole-2-carboxylic acid] — within 0.2 log units, 4.59
- [O-]/[N+](=C\c1ccc(OC(F)F)cc1)c1ccccc1 [1-[4-(difluoromethoxy)phenyl]-N-phenylmethanimine oxide] — lower, < 4.30
- O=C(CSc1nc2c(cnn2-c2ccccc2)c(=O)[nH]1)c1ccc(Cl)cc1 [MLS000091816] — lower, < 4.30
- CCSCCOC(=O)C1=C(C)N=C2CCCC(=O)C2C1c1coc2ccccc2c1=O (stereo unspecified) — lower, < 4.30
- COCCCn1c(N)c(C(=O)NCCC(C)C)c2nc3ccccc3nc21 [MLS000041744] — within 0.2 log units, 4.58
- Cc1nc2cc(-c3cccc(F)c3)nn2c(C)c1CCC(=O)N1CCC2(CC1)OCCO2 [1-(1,4-dioxa-8-azaspiro[4.5]decan-8-yl)-3-[2-(3-fluorophenyl)-5,7-dimethyl-6-pyrazolo[1,5-a]pyrimidinyl]-1-propanone] — lower, < 4.30
- Cc1cccc(N2CCN(S(=O)(=O)c3ccc4c(c3)CCN4C(=O)CCC(=O)O)CC2)c1C [4-(5-{[4-(2,3-dimethylphenyl)piperazin-1-yl]sulfonyl}-2,3-dihydro-1H-indol-1-yl)-4-oxobutanoic acid] — lower, < 4.30
- Cn1c(=O)c2cc(S(=O)(=O)NCCC(=O)NCCC3=CCCCC3)ccc2n(C)c1=O [MLS000092640] — lower, < 4.30
- O=C(c1ccc(-c2ccccc2)cc1)N1CCN(Cc2ccccn2)CC1 [(4-phenylphenyl)-[4-(2-pyridinylmethyl)-1-piperazinyl]methanone] — lower, < 4.30
- [O-]/[N+](=C\c1ccncc1)c1ccc(Br)cc1 [MLS000109219] — lower, < 4.30
- Cc1ccc(NC(=O)COC(=O)c2ccc3c(c2)NC(=O)C2CCCN32)cc1C (stereo unspecified) [4-keto-2,3,3a,5-tetrahydro-1H-pyrrolo[1,2-a]quinoxaline-7-carboxylic acid [2-(3,4-dimethylanilino)-2-keto-ethyl] ester] — lower, < 4.30
- CCCn1nnc(NC(=O)c2cc(Br)cc(Br)c2OC)n1 [3,5-bis(bromanyl)-2-methoxy-N-(2-propyl-1,2,3,4-tetrazol-5-yl)benzamide] — lower, < 4.30
- CCn1c(=O)cc(SCC(=O)N2CCN(Cc3ccc4c(c3)OCO4)CC2)c2ccccc21 [1-ethyl-4-[[2-keto-2-(4-piperonylpiperazino)ethyl]thio]carbostyril] — lower, < 4.30
- COc1ccc(-c2cn3c(C)c(C(=O)Nc4cccc(C)n4)sc3n2)cc1 [6-(4-methoxyphenyl)-3-methyl-N-(6-methyl-2-pyridinyl)-2-imidazo[2,1-b]thiazolecarboxamide] — lower, < 4.30
- Nc1c(N2CCCC2)cc(Cl)c2nonc12 [(7-chloro-5-pyrrolidino-benzofurazan-4-yl)amine] — lower, < 4.30
- Oc1ncnc2[nH]ncc12 — lower, < 4.30
- Cc1cc(NC(=O)c2ccc(S(=O)(=O)N3CCCC3)cc2)nc2c1c(=O)oc1ccccc12 [MLS000091355] — 0.28 log units lower, 4.42
- CCCCNC(=O)c1c(N)n(CCCOC)c2nc3ccccc3nc12 [2-amino-N-butyl-1-(3-methoxypropyl)-3-pyrrolo[3,2-b]quinoxalinecarboxamide] — within 0.2 log units, 4.58
- CCCCOc1ccccc1P(=O)(O)CP(=O)(c1ccccc1)c1ccccc1 [(2-butoxyphenyl)-(diphenylphosphorylmethyl)phosphinic acid] — lower, < 4.30
- FC(F)(F)c1ccc(N2CCOCC2)c(Nc2nc3ccccc3n3cnnc23)c1 [MLS000093276] — within 0.2 log units, 4.64
- COc1cc(/C=C(/C#N)c2ccc(F)cc2)ccc1OCc1ccc(C(=O)O)o1 [5-({4-[2-cyano-2-(4-fluorophenyl)vinyl]-2-methoxyphenoxy}methyl)-2-furoic acid] — lower, < 4.30
- CCCCNC(=O)CSc1nnc(-c2ccco2)n1C [MLS000033335] — lower, < 4.30
- O=C(CSc1nc2ccccc2c(=O)[nH]1)Nc1ccc(S(=O)(=O)N2CCCC2)cc1 [2-[(4-oxo-1H-quinazolin-2-yl)sulfanyl]-N-(4-pyrrolidin-1-ylsulfonylphenyl)acetamide] — lower, < 4.30
- CC(C)(C)N1C(=O)Cc2c1nc(N)c1c(N)nc(N3CCCCC3CO)c(C#N)c21 (stereo unspecified) [5,6-bis(azanyl)-3-tert-butyl-8-[2-(hydroxymethyl)piperidin-1-yl]-2-oxidanylidene-1H-pyrrolo[2,3-c][2,7]naphthyridine-9-carbonitrile] — lower, < 4.30
- O=C(c1n[nH]c(=O)c2ccccc12)N1CCN(C2c3ccccc3-c3ccccc32)CC1 [4-[[4-(9H-fluoren-9-yl)-1-piperazinyl]-oxomethyl]-2H-phthalazin-1-one] — lower, < 4.30
- O=C1C=Cc2ccccc2/C1=C/NC12CN3CCN(CN(C3)C1)C2 [MLS000071484] — lower, < 4.30
- N#Cc1c(N)sc(=S)c2c1CCN(Cc1ccccc1)C2 [3-Amino-7-benzyl-1-thioxo-5,6,7,8-tetrahydro-1H-thiopyrano[3,4-c]pyridine-4-carbonitrile] — 1.25 log units higher, 5.95
- Nc1ccc2ncccc2c1N [SMR000015817] — lower, < 4.30
- COc1ccc(Br)cc1C=c1sc2nc(-c3ccco3)nn2c1=O [5-[(5-bromanyl-2-methoxy-phenyl)methylidene]-2-(furan-2-yl)-[1,3]thiazolo[3,2-b][1,2,4]triazol-6-one] — 0.65 log units higher, 5.35
- CC(C)(C)C(=O)c1sc(Nc2ccccc2)nc1N [1-(4-amino-2-anilino-1,3-thiazol-5-yl)-2,2-dimethyl-1-propanone] — lower, < 4.30
- Cc1nn(Cc2ccccc2)c(C)c1NC(=O)CSc1nc2sc3c(c2c(=O)n1C)CCC3 [MLS000096728] — lower, < 4.30
- CCn1cc(C(=O)NC2CCC(C)CC2)c(=O)c2cc(S(=O)(=O)N3CCCCC3)ccc21 (stereo unspecified) — 0.39 log units lower, 4.31
- CN1Cc2cc(C(=O)c3cc(Cl)cc(CSc4ncccn4)c3O)cnc2NC1=O [6-[5-chloranyl-2-oxidanyl-3-(pyrimidin-2-ylsulfanylmethyl)phenyl]carbonyl-3-methyl-1,4-dihydropyrido[2,3-d]pyrimidin-2-one] — lower, < 4.30
- Cc1ccc(/C=C/C2=Cc3c(sc(NC(=O)CSc4nnc(N)[nH]4)c3C#N)C(C)(C)C2)o1 [2-[(5-azanyl-1H-1,2,4-triazol-3-yl)sulfanyl]-N-[3-cyano-7,7-dimethyl-5-[(E)-2-(5-methylfuran-2-yl)ethenyl]-6H-1-benzothiophen-2-yl]ethanamide] — 0.33 log units higher, 5.03
- COc1ccc(-n2c(SCC(=O)N3CCCC3)nc3c([nH]c4ccccc43)c2=O)cc1 [SMR000018494] — lower, < 4.30
- CCOc1ccc(-c2cc3nc(C4CCN(C(=O)OC(C)(C)C)CC4)c(C(=O)O)cn3n2)cc1 [2-(4-ethoxyphenyl)-5-[1-[(2-methylpropan-2-yl)oxy-oxomethyl]-4-piperidinyl]-6-pyrazolo[1,5-a]pyrimidinecarboxylic acid] — within 0.2 log units, 4.82
- O=C(c1cccs1)c1no[n+]([O-])c1C(=O)c1cccs1 [(5-oxidanidyl-4-thiophen-2-ylcarbonyl-1,2,5-oxadiazol-5-ium-3-yl)-thiophen-2-yl-methanone] — 0.76 log units higher, 5.46
- Cn1ncnc2c(=O)n(C)c(=O)nc1-2 — 2.04 log units higher, 6.74
- CCn1c(SCC(=O)Nc2nc3ccc(OC)cc3s2)nc2c1c(=O)n(C)c(=O)n2C [2-(7-Ethyl-1,3-dimethyl-2,6-dioxo-2,3,6,7-tetrahydro-1H-purin-8-ylsulfanyl)-N-(6-methoxy-benzothiazol-2-yl)-acetamide] — within 0.2 log units, 4.74
- Cc1cccc(N2CCN(C(=O)c3cc4c(=O)[nH]c5ccccc5c4n3C)CC2)c1C [2-{[4-(2,3-dimethylphenyl)piperazin-1-yl]carbonyl}-1-methyl-1,5-dihydro-4H-pyrrolo[3,2-c]quinolin-4-one] — lower, < 4.30
- O=C1C(=C2C(=O)c3ccccc3C2=O)Nc2ccccc21 [MLS000071738] — lower, < 4.30
- O=C(CSc1nc2n[nH]cc2c(=O)n1-c1ccccc1)N1CCCc2ccccc21 — lower, < 4.30
- COC(=O)CCCc1nc2ccccc2s1 [4-(1,3-benzothiazol-2-yl)butanoic acid methyl ester] — lower, < 4.30
- CCOc1ccc2noc3c2c1C(=O)c1ccccc1-3 [MLS000106837] — 0.39 log units lower, 4.31
- CC1CCCCC1NS(=O)(=O)c1ccc(S(=O)(=O)NCc2ccncc2)cc1 (stereo unspecified) [4-N-(2-methylcyclohexyl)-1-N-(pyridin-4-ylmethyl)benzene-1,4-disulfonamide] — lower, < 4.30
- CCCCn1c(NC(=O)c2ccccc2)c(C#N)c2nc3ccccc3nc21 [SMR000060333] — within 0.2 log units, 4.63
- COc1ccc(OC)c(NC(=O)CSc2nnc(Cc3cccn3C)n2CCc2ccccc2)c1 [MLS000092931] — lower, < 4.30
- O=C1C=C(NCc2ccc(Cl)c(Cl)c2)CC1 [3-[(3,4-dichlorobenzyl)amino]cyclopent-2-en-1-one] — lower, < 4.30
- COC(=O)N(c1ccc(OC)cc1)P1(=S)OCCC(C)O1 (stereo unspecified) [MLS000043492] — lower, < 4.30
- CC1=C(/C=C/C(C)=C/C=C/C(C)=C/C(=O)O)C(C)(C)CCC1 [ALL-TRANS-RETINOIC ACID] — within 0.2 log units, 4.57

— BindingDB's records for doi:10.7270/Q2F769WQ (University of Pittsburgh, 2007)
